Columns and labels:
[1] = xn = mol fraction of the nth substance listed; conditions: 101 kPa, Liquid
[2] = 101 kPa, Liquid

CCCCCCCO [heptan-1-ol] + CCCCn1cc[n+](C)c1.N#C[S-]
[1], x2 = 0
Conditions	mass density [kg/m3]	viscosity [mPa·s]
298.15 K	818.81	5.851
308.15 K	811.73	4.26
318.15 K	804.55	3.184
328.15 K	797.22	2.434
338.15 K	789.75	1.9
348.15 K	782.08	1.512

CCCCCCCCO [octan-1-ol]
[2]
Conditions	mass density [kg/m3]	viscosity [mPa·s]
298.15 K	821.61	7.398
308.15 K	814.64	5.285
318.15 K	807.57	3.887
328.15 K	800.39	2.931
338.15 K	793.09	2.262
348.15 K	785.59	1.782

CCCCCCCO [heptan-1-ol]
[2]
Conditions	mass density [kg/m3]	viscosity [mPa·s]
298.15 K	818.81	5.851
308.15 K	811.73	4.26
318.15 K	804.55	3.184
328.15 K	797.22	2.434
338.15 K	789.75	1.9
348.15 K	782.08	1.512

CCCCCCCCO [octan-1-ol] + CCCCn1cc[n+](C)c1.N#C[S-]
[1], x2 = 0
Conditions	mass density [kg/m3]	viscosity [mPa·s]
298.15 K	821.61	7.398
308.15 K	814.64	5.285
318.15 K	807.57	3.887
328.15 K	800.39	2.931
338.15 K	793.09	2.262
348.15 K	785.59	1.782

CCCCCCCCCCO [decan-1-ol]
[2]
Conditions	mass density [kg/m3]	viscosity [mPa·s]
298.15 K	826.38	11.09
308.15 K	819.53	7.632
318.15 K	812.62	5.375
328.15 K	805.61	3.928
338.15 K	798.48	2.964
348.15 K	791.21	2.399

CCCCCCCCCCO [decan-1-ol] + CCCCn1cc[n+](C)c1.N#C[S-]
[1], x2 = 0
Conditions	mass density [kg/m3]	viscosity [mPa·s]
298.15 K	826.38	11.09
308.15 K	819.53	7.632
318.15 K	812.62	5.375
328.15 K	805.61	3.928
338.15 K	798.48	2.964
348.15 K	791.21	2.399

CCCCn1cc[n+](C)c1.N#C[S-] [1-butyl-3-methylimidazolium thiocyanate]
[2]
Conditions	mass density [kg/m3]	viscosity [mPa·s]
298.15 K	1069.79	51.74
308.15 K	1063.89	34.87
318.15 K	1058.02	24.19
328.15 K	1052.19	16.7
338.15 K	1046.43	12.73
348.15 K	1040.7	9.98

CCCCCCCCCO [nonan-1-ol]
[2]
Conditions	mass density [kg/m3]	viscosity [mPa·s]
298.15 K	824.27	9.343
308.15 K	817.36	6.497
318.15 K	810.4	4.674
328.15 K	803.29	3.452
338.15 K	796.1	2.664
348.15 K	788.72	2.256

CCCCn1cc[n+](C)c1.N#C[S-] [1-butyl-3-methylimidazolium thiocyanate] + CCCCCCCCCO
[1]
Conditions	mass density [kg/m3]	viscosity [mPa·s]
298.15 K, x1 = 0.1203	855.59	12.19
298.15 K, x1 = 0.2008	876.27	14.2
298.15 K, x1 = 0.2814	896.75	16.58
298.15 K, x1 = 0.3884	923.66	20.3
298.15 K, x1 = 0.5697	968.54	28.04
298.15 K, x1 = 0.6709	993.14	32.31
298.15 K, x1 = 0.7658	1015.88	–
298.15 K, x1 = 0.8618	1038.46	41.61
298.15 K, x1 = 0.9651	1062.11	46.89
298.15 K, x1 = 1	1069.79	51.74
308.15 K, x1 = 0.1203	848.88	8.664
308.15 K, x1 = 0.2008	869.7	10.14
308.15 K, x1 = 0.2814	890.24	11.81
308.15 K, x1 = 0.3884	917.27	14.3
308.15 K, x1 = 0.5697	962.4	19.35
308.15 K, x1 = 0.6709	987.05	22.23
308.15 K, x1 = 0.7658	1009.89	–
308.15 K, x1 = 0.8618	1032.53	27.8
308.15 K, x1 = 0.9651	1056.18	31.09
308.15 K, x1 = 1	1063.89	34.87
318.15 K, x1 = 0.1203	841.98	6.378
318.15 K, x1 = 0.2008	862.96	7.487
318.15 K, x1 = 0.2814	883.74	8.739
318.15 K, x1 = 0.3884	910.89	10.55
318.15 K, x1 = 0.5697	956.26	14.03
318.15 K, x1 = 0.6709	981.02	16.01
318.15 K, x1 = 0.7658	1003.93	–
318.15 K, x1 = 0.8618	1026.62	19.67
318.15 K, x1 = 0.9651	1050.33	21.81
318.15 K, x1 = 1	1058.02	24.19
328.15 K, x1 = 0.1203	835.4	4.782
328.15 K, x1 = 0.2008	856.36	5.662
328.15 K, x1 = 0.2814	877.25	6.629
328.15 K, x1 = 0.3884	904.56	8.032
328.15 K, x1 = 0.5697	950.15	10.61
328.15 K, x1 = 0.6709	975	12.04
328.15 K, x1 = 0.7658	998.03	–
328.15 K, x1 = 0.8618	1020.79	14.55
328.15 K, x1 = 0.9651	1044.5	16.06
328.15 K, x1 = 1	1052.19	16.7
338.15 K, x1 = 0.1203	828.56	3.695
338.15 K, x1 = 0.2008	849.77	4.408
338.15 K, x1 = 0.2814	870.73	5.139
338.15 K, x1 = 0.3884	898.2	6.237
338.15 K, x1 = 0.5697	944.06	8.26
338.15 K, x1 = 0.6709	969.04	9.33
338.15 K, x1 = 0.7658	992.15	–
338.15 K, x1 = 0.8618	1014.99	11.22
338.15 K, x1 = 0.9651	1038.73	12.32
338.15 K, x1 = 1	1046.43	12.73
348.15 K, x1 = 0.1203	821.64	2.971
348.15 K, x1 = 0.2008	843.14	3.521
348.15 K, x1 = 0.2814	864.18	4.102
348.15 K, x1 = 0.3884	891.86	4.962
348.15 K, x1 = 0.5697	937.98	6.512
348.15 K, x1 = 0.6709	963.09	7.404
348.15 K, x1 = 0.7658	986.31	–
348.15 K, x1 = 0.8618	1009.22	8.89
348.15 K, x1 = 0.9651	1032.99	9.74
348.15 K, x1 = 1	1040.7	9.98

CCCCCCCCCO [nonan-1-ol] + CCCCn1cc[n+](C)c1.N#C[S-]
[1], x2 = 0
Conditions	mass density [kg/m3]	viscosity [mPa·s]
298.15 K	824.27	9.343
308.15 K	817.36	6.497
318.15 K	810.4	4.674
328.15 K	803.29	3.452
338.15 K	796.1	2.664
348.15 K	788.72	2.256

— the NIST ThermoML archive (doi:10.1021/je901043q)
